Results as given in publication PMC6158578, “Optimization and Lead Selection of Benzothiazole Amide Analogs Toward a Novel Antimycobacterial Agent” (Frontiers in Microbiology, 2018).
≈ marks a conversion by molar mass, not a printed value. Like-named read-outs stand apart in the source and are kept apart here.

Experiments:
[1] = tested on: M. abscessus (n = 20) clinical isolates; assay: MIC against rapid-growing NTM clinical isolates; type: cell-based; conditions: for MIC range: M. abscessus (n = 20); for MIC90: Mycobacteroides abscessus
S. aureus ATCC 29213 = assay: MIC, spectrum of activity; type: cell-based; conditions: Staphylococcus aureus, ATCC29213
[2] = tested on: Mtb intact cells and inverted membrane vesicles; type: cell-based, M. tuberculosis
[3] = tested on: M. tuberculosis H37Rv mc^2 6206; assay: microbe, parasite or virus in culture; type: cell-based; conditions: Mycobacterium tuberculosis
M. avium 101 = assay: MIC, Middlebrook medium (7H9 + OADC, 7 days); type: cell-based; conditions: Mycobacterium avium, 101, 168 h
M. intracellulare 1956 = assay: MIC, Middlebrook medium (7H9 + OADC, 7 days); type: cell-based; conditions: Mycobacterium intracellulare, 1956, 168 h
[4] = 50% complement-inactivated human serum
M. abscessus = tested on: M. abscessus; parameters: method as in Graham et al., 2018; conditions: SAR of CRS400153 analogs; ref Graham et al., 2018; cited from earlier work
[5] = tested on: M. peregrinum ATCC 700686; assay: MIC, broth microdilution with resazurin (MHB, 3 days); type: cell-based; conditions: Mycolicibacterium peregrinum, ATCC700686
M. fortuitum 41 = assay: as above; type: cell-based; conditions: Mycolicibacterium fortuitum, 41
[6] = tested on: E. coli ATCC 25922 + PMBN (permeabilized); assay: MIC, spectrum of activity; type: cell-based; conditions: Escherichia coli, ATCC25922
[7] = tested on: M. chelonae (n = 11) clinical isolates; assay: MIC against rapid-growing NTM clinical isolates; type: cell-based; conditions: for MIC range: M. chelonae (n = 11); for MIC90: Mycobacteroides chelonae
S. pyogenes ATCC 19615 = assay: MIC, spectrum of activity; type: cell-based; conditions: Streptococcus pyogenes, ATCC19615
M. chelonae 93 = assay: MIC, broth microdilution with resazurin (MHB, 3 days); type: cell-based; conditions: Mycobacteroides chelonae, 93
[8] = tested on: mycolic acid transfer in Mabs ATCC19977; assay: Metabolic labeling with [14C]acetate; type: cell-based, M. abscessus; conditions: 2x and 10x MIC
E. faecalis ATCC 29212 = assay: MIC, spectrum of activity; type: cell-based; conditions: Enterococcus faecalis, ATCC29212
P. aeruginosa ATCC 35151 = assay: MIC, spectrum of activity; type: cell-based; conditions: Pseudomonas aeruginosa, ATCC35151
M. abscessus ATCC 19977 = assay: MIC, broth microdilution with resazurin (MHB, 3 days); type: cell-based; conditions: Mycobacteroides abscessus, ATCC19977
[9] = tested on: M. abscessus massiliense 119; assay: as above; type: cell-based; conditions: Mycobacteroides abscessus
physchem = type: physicochemical; conditions: pH 7.4, aqueous buffer, thermodynamic from solid
Experimental: (§1) ADMET assays were performed through NIAID Preclinical Services and Eurofins. Potential for cytotoxicity was monitored in HepG2 cells after 72 h growth in the presence of test compounds, either prepared as 10-point 3-fold serial dilutions or at a fixed 10 μM concentration. Cell viability was measured using the CellTiter-Glo® Luminescent Cell Viability Assay (Promega) or via fluorescent image analysis. Cytotoxicity was expressed as IC50 or as percent reduction of viable cells relative to a reference compound. Metabolic stability of compounds was evaluated via incubation with human liver microsomes at 37°C and quantitative analysis of parent compound by LC-MS/MS in samples removed at 0, 5, 15, 30, and 45 min (Obach, [1999]). For cytochrome P450 (CYP) inhibition assays, compounds were prepared as a 7-point dilution series and incubated with human liver microsomes in buffer containing 2 mM NADPH and probe substrate. […] Thermodynamic solubility of compounds in aqueous media was determined by incubation in 50 mM potassium phosphate buffer (pH 7.4) for 24 h, followed by HPLC-UV detection of compound in the filtrate (Analiza, Cleveland, OH, United States).

Other NTM (n = 12) = assay: MIC against rapid-growing NTM clinical isolates; type: cell-based; conditions: for MIC range: Other NTM (n = 12)
[10] = tested on: M. fortuitum (n = 11) clinical isolates; assay: MIC against rapid-growing NTM clinical isolates; type: cell-based; conditions: for MIC range: M. fortuitum (n = 11); for MIC90: Mycolicibacterium fortuitum
S. pneumoniae ATCC 49619 = assay: MIC, spectrum of activity; type: cell-based; conditions: Streptococcus pneumoniae, ATCC49619
[11] = tested on: E. coli tolC CGSC 5633 (efflux mutant strain); assay: microbe, parasite or virus in culture; type: cell-based; conditions: Escherichia coli
M. abscessus 21 = assay: MIC in MHB versus 7H9+OADC; type: cell-based
HepG2 cytotoxicity, 72 h = type: cell-based; conditions: human, HepG2 cells, HepG2, 72 h, read-out: HepG2 cytotox., IC50
Experimental: as §1

M. abscessus 79 = assay: MIC in MHB versus 7H9+OADC; type: cell-based
M. abscessus 1 = assay: MIC in MHB versus 7H9+OADC; type: cell-based
M. chimaera 1502055 = assay: MIC, Middlebrook medium (7H9 + OADC, 7 days); type: cell-based; conditions: 1502055, 168 h
[12] = type: cell-based
C. albicans ATCC 10231 = assay: MIC, spectrum of activity; type: cell-based; conditions: Candida albicans, ATCC10231
CYP2B6 = biological target: T1, CYP2B6 (Homo sapiens, UniProt P20813); assay: CYP inhibition in human liver microsomes; type: in vitro ADME
T1 construct: incubated with human liver microsomes in buffer containing 2 mM NADPH and probe substrate; from tissue; host or cells: human liver microsomes
T1 sequence (P20813 1-491): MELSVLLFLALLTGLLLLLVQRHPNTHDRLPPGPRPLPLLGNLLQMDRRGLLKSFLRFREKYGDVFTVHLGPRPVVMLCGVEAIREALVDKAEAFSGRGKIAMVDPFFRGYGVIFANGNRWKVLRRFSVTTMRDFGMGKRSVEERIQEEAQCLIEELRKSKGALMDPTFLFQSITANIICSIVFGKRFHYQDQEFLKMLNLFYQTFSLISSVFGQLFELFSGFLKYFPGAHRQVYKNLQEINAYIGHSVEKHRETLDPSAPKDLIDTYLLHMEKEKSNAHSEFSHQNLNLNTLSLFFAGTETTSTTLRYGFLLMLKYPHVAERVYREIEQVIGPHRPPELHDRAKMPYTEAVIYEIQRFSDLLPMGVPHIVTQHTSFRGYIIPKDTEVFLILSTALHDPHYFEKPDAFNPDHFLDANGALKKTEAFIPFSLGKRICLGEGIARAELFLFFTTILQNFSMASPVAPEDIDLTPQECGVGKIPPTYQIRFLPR
Experimental: as §1

CYP3A = assay: CYP inhibition in human liver microsomes; type: in vitro ADME
Experimental: as §1

Mabs 21 = assay: Time-kill assay; type: cell-based, M. abscessus; conditions: 10x MIC
rapid-growing NTM = assay: MIC against rapid-growing NTM; type: cell-based; conditions: read-out: MIC values against rapid-growing NTM
[13] = tested on: Anaerobes (n > 20 strains); assay: organism not typed; type: cell-based
M. avium complex (MAC) = assay: MIC against MAC; type: cell-based; conditions: Mycobacterium avium, read-out: MIC against MAC

SMILES: CC1CC(C(=O)Nc2nc3c(F)cc(F)cc3s2)CC(C)(C)C1 (stereo not shown) [CRS400153]
- MIC range [1]: 0.5 to 2 µg/mL
- MIC90 [1]: 1 µg/mL (≈ 2.95 µM)
- MIC (S. aureus ATCC 29213): > 64 µg/mL
- effect on membrane potential and electrochemical pH gradient [2]: no effect
- MIC ([3]; 168 h): 1 µg/mL (≈ 2.95 µM)
- MIC (M. avium 101): 16 µg/mL
- MIC (M. intracellulare 1956): 8 µg/mL
- Protein (serum) binding [4]: >95%
- MIC against M. abscessus (M. abscessus): 0.5 µg/mL (≈ 1.48 µM)
- MIC [5]: 0.12 µg/mL (≈ 0.355 µM)
- MIC (M. fortuitum 41): 0.25 µg/mL (≈ 0.739 µM)
- MIC [6]: > 64 µg/mL
- MIC range [7]: 0.5 to 1 µg/mL
- MIC90 [7]: 1 µg/mL (≈ 2.95 µM)
- MIC (S. pyogenes ATCC 19615): > 64 µg/mL
- MIC (M. chelonae 93): 0.25 µg/mL (≈ 0.739 µM)
- effect on mycolic acid transfer to arabinogalactan and trehalose dimycolates [8]: concentration-dependent inhibition of mycolic acid transfer
- MIC (E. faecalis ATCC 29212): > 64 µg/mL
- MIC (P. aeruginosa ATCC 35151): > 64 µg/mL
- MIC (M. abscessus ATCC 19977): 0.5 µg/mL (≈ 1.48 µM)
- MIC [9]: 0.5 µg/mL (≈ 1.48 µM)
- solubility at 24 h (physchem): 3 µM (≈ 1.02 µg/mL)
- MIC90 (Other NTM (n = 12)): 1 µg/mL (≈ 2.95 µM)
- MIC range (Other NTM (n = 12)): 0.25 to 1 µg/mL
- MIC range [10]: 0.5–0.5 μg/mL
- MIC90 [10]: 0.5 µg/mL (≈ 1.48 µM)
- MIC (S. pneumoniae ATCC 49619): 8 µg/mL (≈ 23.6 µM)
- MIC [11]: > 64 µg/mL

SMILES: CC12CCCC(C(=O)Nc3nc4cc(Cl)cc(Cl)c4s3)(CCC1)C2 [CRS400393]
- MIC range [1]: ≤ 0.03 to 0.25 µg/mL
- MIC90 [1]: 0.25 µg/mL (≈ 0.652 µM)
- MIC (S. aureus ATCC 29213): > 64 µg/mL
- MIC ([3]; 168 h): ≤ 0.12 µg/mL
- MIC ([3]; read-out: MIC against Mtb): ≤ 0.12 µg/mL
- MIC (M. abscessus 21; M. abscessus 21, 7H9 + OADC (5 mg/mL albumin)): 1 µg/mL
- MIC (M. abscessus 21; M. abscessus 21, MHB): 0.03 µg/mL (≈ 0.0783 µM)
- IC50 at 72 h (HepG2 cytotoxicity, 72 h): > 10 µM
- IC50 at 72 h (HepG2 cytotoxicity, 72 h; value in brackets): > 4 µg/mL
- MIC (M. abscessus 79; M. abscessus 79, 7H9 + OADC (5 mg/mL albumin)): 0.5 µg/mL
- MIC (M. abscessus 79; M. abscessus 79, MHB): 0.03 µg/mL (≈ 0.0783 µM)
- MIC (M. avium 101): 2 µg/mL
- MIC (M. intracellulare 1956): 2 µg/mL
- MIC (M. abscessus 1; M. abscessus 1, 7H9 + OADC (5 mg/mL albumin)): 1 µg/mL
- MIC (M. abscessus 1; M. abscessus 1, MHB): 0.06 µg/mL (≈ 0.157 µM)
- Protein (serum) binding [4]: >95%
- MIC (M. chimaera 1502055): 1 µg/mL
- MIC [5]: 0.03 µg/mL (≈ 0.0783 µM)
- interaction when combined with other antimycobacterial agents [12]: additivity and no antagonism
- MIC (M. fortuitum 41): 0.06 µg/mL (≈ 0.157 µM)
- MIC (C. albicans ATCC 10231): > 64 µg/mL
- inhibition at 10 µM (CYP2B6): 39%
- inhibition at 10 µM (CYP3A): 26%
- time-kill kinetics, result in words (Mabs 21): bactericidal activity
- drop in Mabs in time-kill assay (Mabs 21; after 5 days): 2 Log10 CFU
- effect against Mabs in time-kill assay (Mabs 21; for 3 days): bacteriostatic
- MIC [6]: > 64 µg/mL
- MIC (rapid-growing NTM): 0.03 to 0.5 µg/mL (≈ 0.0783 to 1.3 µM)
- MIC range [7]: 0.12–0.12 μg/mL
- MIC90 [7]: 0.12 µg/mL (≈ 0.313 µM)
- MIC (S. pyogenes ATCC 19615): > 64 µg/mL
- MIC (M. chelonae 93): 0.03 µg/mL (≈ 0.0783 µM)
- MIC (E. faecalis ATCC 29212): > 64 µg/mL
- MIC (P. aeruginosa ATCC 35151): 64 µg/mL (≈ 167 µM)
- MIC (M. abscessus ATCC 19977): 0.03 µg/mL (≈ 0.0783 µM)
- MIC [9]: 0.03 µg/mL (≈ 0.0783 µM)
- solubility at 24 h (physchem): < 3 µM
- MIC90 (Other NTM (n = 12)): 0.5 µg/mL (≈ 1.3 µM)
- MIC range (Other NTM (n = 12)): 0.12 to 0.5 µg/mL
- MIC range [10]: ≤ 0.03 to 0.5 µg/mL
- MIC90 [10]: 0.25 µg/mL (≈ 0.652 µM)
- MIC (S. pneumoniae ATCC 49619): 32 µg/mL (≈ 83.5 µM)
- MIC [11]: 64 µg/mL (≈ 167 µM)
- MIC [13]: > 32 µg/mL
- MIC (M. avium complex (MAC)): 1 to 2 µg/mL (≈ 2.61 to 5.22 µM)
